{"source": "patent US20070015815A1", "about": "“Hydrazide substrate shuts down protein biosynthesis capability in cells that host a metastatic or malignant disease mechanism” (priority 2003, published 2007)", "key": {"Kaposi's Sarcoma": {"test_system": "Kaposi's Sarcoma", "test": "Kaposi's Sarcoma of the applicant", "design": "species or system human", "details": "in vivo"}, "[1]": {"test_system": "bacterial gastroenteritis", "test": "bacterial gastroenteritis of the applicant", "assay_type": "in vivo, human", "details": "100 mg dose with warm tap water"}, "tuberculosis organism": {"test_system": "tuberculosis organism", "details": "Fox, 1952; cited from earlier work"}, "fetal cells": {"test_system": "fetal cells", "assay_type": "in vivo", "details": "offspring"}, "[2]": {"details": "Public Health Service Pub. No.1589 (1967); cited from earlier work"}, "HIV": {"test_system": "HIV", "assay_type": "in vivo, human"}, "[3]": {"details": "in vivo; cited from earlier work"}, "basal cell carcinoma": {"test_system": "basal cell carcinoma", "test": "basal cell carcinoma of the applicant", "assay_type": "in vivo, human", "details": "during the melanoma treatment", "description": "A second more benign cancer growth coexisted at the same time while the melanoma treatment was ongoing which was of the basal cell carcinoma type which was not very noticeable, bothersome, or believed to be life threatening, but which also disappeared following the hydrazide melanoma treatment. The basal cell carcinoma was located below the left eye on the applicant's cheek which was characterized by a hard, gritty, cellular formation where scratching or rubbing the surface would dislodge some of the small hard cells which is a common characteristic of basal cell carcinoma. Although the condition was not apparent or at a life threatening stage at the time, and had never raised concerns or the idea of providing opportunity for Iproniazid screening as the melanoma cancer did, it was nevertheless inadvertently shutdown by Iproniazid and had likewise disappeared. Such successful use of Iproniazid as a cancer treatment method constitutes a new cancer treatment use for the MAOI hydrazide product."}, "influenza": {"test_system": "influenza", "test": "influenza of the applicant", "assay_type": "in vivo, human", "details": "small dose", "description": "Such irreversible substrate concept has been postulated as an oxidase enzyme inhibitor which the applicant agrees is correct in context that such is a protease inhibitor and not an oxidase inhibitor. Such concept provides a hypothesis that logically explains all hydrazide biological prior art phenomena and can predict the prodrug type irreversible substrate action of any simple or low molecular weight hydrazide molecule. The irreversible substrate type protease inhibitor idea is also in agreement with the antidepressant drug explanation and working model, and the Malazide explanation and working model, and was predicted and illustrated by the mouse fetus experiment, and additionally concurs with the Marboran antiviral working model and explanation. […] And following a long period of time where no research was conducted due to family tragedies and related obstruction, the applicant returned to such work where the MAOI type hydrazide, Iproniazid, was then successfully used to target and shutdown protein biosynthesis in cells that hosted malignant disease mechanisms comprising various types of cancers and viral infections. […]"}, "[4]": {"details": "cited from earlier work"}, "polio": {"test_system": "polio", "details": "Thompson, about 1953; cited from earlier work"}, "smallpox": {"test_system": "smallpox", "details": "Thompson, about 1953; cited from earlier work"}, "[5]": {"details": "1500 mg to 3000 mg daily; cited from earlier work"}, "malignant melanoma": {"test_system": "malignant melanoma", "test": "malignant melanoma of the applicant", "assay_type": "in vivo, human", "details": "about 100 mg daily for about three or four weeks", "description": "The MAOI hydrazide anticancer concept was reduced to practice by the applicant when an impromptu opportunity appeared after a decade old mole began to metastasize. The growth was about a half inch in diameter located in the center of the applicant's forehead, and had remained stable, symmetrical, and unchanged for years when it began to increase in size, shape, and having mixed pigmentation indicative of malignant melanoma. At such time the applicant began a treatment regimen based on Iproniazid Phosphate at about 100 mg daily for about three or four weeks when the perimeter of the growth began to separate from the skin surface underneath and itch. The applicant would unconsciously pick at the protruding edge as if picking at a scab which served to more quickly separate the neoplastic part at its perimeter where sections were peeled away."}, "viral conjunctivitis": {"test_system": "viral conjunctivitis", "test": "viral conjunctivitis of the applicant", "assay_type": "in vivo, human", "details": "single dose of about 100 mg"}}, "note": "Read-outs that look alike come from different tables or passages of the source."}
{"compound": "CC(C)NNC(=O)c1ccncc1", "note": "[Iproniazid, Isonicotinic acid 2-isopropylhydrazide]", "values": [{"measurement": "effect on Kaposi's Sarcoma", "setting": "Kaposi's Sarcoma", "value": "inhibit and shutdown"}, {"measurement": "time until all pain and griping had disappeared", "setting": "[1]", "value": "≤ 10", "unit": "min"}, {"measurement": "time until most pain was gone", "setting": "[1]", "value": "≤ 5", "unit": "min"}, {"measurement": "tuberculostatic activity", "setting": "tuberculosis organism", "value": "did not appear to kill the tuberculosis organism"}, {"measurement": "outcome of fetal cell division and growth shutdown in pregnant mice", "setting": "fetal cells", "value": "birth of all healthy mice that matured normally to provide midget size adults"}, {"measurement": "lethal dose for mice", "setting": "[2]", "value": 1760, "unit": "mg/kg"}, {"measurement": "outcome after completed treatment study", "setting": "HIV; after planned research was completed", "value": "the virus was eradicated in total"}, {"measurement": "cytotoxic effects", "setting": "[3]", "value": "no cytotoxic effects"}, {"measurement": "effect on basal cell carcinoma", "setting": "basal cell carcinoma", "value": "disappeared"}, {"measurement": "effect on influenza", "setting": "influenza", "value": "very rapid recovery"}]}
{"compound": "NNC(=O)c1ccncc1", "note": "[Isoniazid, Isonicotinic acid hydrazide]", "values": [{"measurement": "tuberculostatic activity", "setting": "tuberculosis organism", "value": "exceeded all other substances screened"}, {"measurement": "fraction converted by metabolism to the hydrazide (acetyl) metabolite", "setting": "[4]; in vivo", "value": 50, "unit": "%"}]}
{"compound": "CN1C(=O)C(=NNC(N)=S)c2ccccc21", "note": "[Marboran, 1-Methylindole-2,3,-dione 3 thiosemicarbazone]", "values": [{"measurement": "antiviral action against polio", "setting": "polio", "value": "effective"}, {"measurement": "antiviral action against smallpox", "setting": "smallpox", "value": "effective"}, {"measurement": "side effects accompanying use", "setting": "[5]", "value": "nausea and vomiting"}]}
{"compound": "NN", "note": "[hydrazine]", "values": [{"measurement": "fraction converted by metabolism to the hydrazide (acetyl) metabolite", "setting": "[4]; Fox", "value": "about 50%"}]}
{"compound": "Iproniazid phosphate", "values": [{"measurement": "effect on malignant melanoma growth", "setting": "malignant melanoma", "value": "removed in total"}, {"measurement": "course after the single dose", "setting": "HIV; after several weeks", "value": "the virus begin to return"}, {"measurement": "effect of initial single dose on HIV viral activity", "setting": "HIV; single dose of about 100 mg, applicant", "value": "shutdown the viral activity seemingly in total"}, {"measurement": "effect on viral conjunctivitis", "setting": "viral conjunctivitis", "value": "disappearance of the inflamation of the conjunctiva"}]}
